Several values for one entry are separate records, joined by “and”; a condition that tells them apart may be missing. Equal values may be shown once. Read-outs that look alike come from different tables or passages of the source.
What was measured:
[1] = target: acetylcholinesterase (AChE) (Homo sapiens, UniProt P22303); type: biochemical; settings: at 100 µM
15-lipoxygenase = target: T1, 15-lipoxygenase (Glycine max, UniProt P08170); test: Anti-inflammatory activity (anti 15-lipoxygenase); type: biochemical; settings: at 100 µM
T1 sequence (P08170 1-839): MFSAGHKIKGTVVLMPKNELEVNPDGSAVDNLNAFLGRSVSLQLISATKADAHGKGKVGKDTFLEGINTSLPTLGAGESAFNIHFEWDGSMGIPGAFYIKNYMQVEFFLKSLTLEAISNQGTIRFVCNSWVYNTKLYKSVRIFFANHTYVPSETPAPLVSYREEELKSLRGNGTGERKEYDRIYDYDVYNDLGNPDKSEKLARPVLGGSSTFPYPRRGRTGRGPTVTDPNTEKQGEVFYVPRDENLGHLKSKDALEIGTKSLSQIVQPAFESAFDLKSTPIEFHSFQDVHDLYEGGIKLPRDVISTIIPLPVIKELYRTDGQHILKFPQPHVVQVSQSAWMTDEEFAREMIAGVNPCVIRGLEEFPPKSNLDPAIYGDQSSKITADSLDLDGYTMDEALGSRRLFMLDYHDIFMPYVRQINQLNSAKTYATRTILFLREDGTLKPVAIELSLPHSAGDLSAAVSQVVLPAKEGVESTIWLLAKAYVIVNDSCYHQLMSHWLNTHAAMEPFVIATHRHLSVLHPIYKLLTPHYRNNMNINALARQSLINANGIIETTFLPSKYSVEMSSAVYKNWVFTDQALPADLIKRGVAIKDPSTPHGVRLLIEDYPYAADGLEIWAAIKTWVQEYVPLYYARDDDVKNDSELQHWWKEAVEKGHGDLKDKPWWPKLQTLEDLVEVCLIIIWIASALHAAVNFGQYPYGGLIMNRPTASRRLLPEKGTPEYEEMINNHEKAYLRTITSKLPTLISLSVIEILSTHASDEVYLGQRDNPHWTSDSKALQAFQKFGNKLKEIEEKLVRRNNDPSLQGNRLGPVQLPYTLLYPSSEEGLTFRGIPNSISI

[2] = target: T2, superoxide dismutase (SOD) (Homo sapiens, UniProt P00441); test: biochemical
T2 sequence (P00441 whole entry): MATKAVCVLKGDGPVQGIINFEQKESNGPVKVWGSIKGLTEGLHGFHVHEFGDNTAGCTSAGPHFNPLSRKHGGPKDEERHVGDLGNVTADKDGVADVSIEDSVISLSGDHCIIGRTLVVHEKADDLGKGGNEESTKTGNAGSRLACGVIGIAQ
Description: Pyrogallol auto-oxidation due to oxygen in the air can be inhibited by an enzyme that is naturally present in the body: superoxide dismutase (SOD). Furthermore, variations in the pyrogallol auto-oxidation rate in the presence of SOD were evaluated. Tests were carried out in triplicate. The objective was to find an inhibitor of the auto-oxidation of pyrogallol in the presence of a SOD enzyme solution. Samples were tested at a concentration of 50 µg/mL, followed by incubation for 4 min at 25 °C. […] The self-oxidation of pyrogallol was evaluated in the absence of the enzyme. For this, 30 µL of pyrogallol was added to 120 µL of tris buffer (in place of the SOD) (pH 8.5), then followed by the same steps of incubating a positive control (without the molecule); this was performed in the presence of 5% of DMSO to evaluate the percentage of SOD inhibition activity on the auto-oxidation of pyrogallol.

[3] = target: T2, superoxide dismutase (SOD); type: biochemical; settings: at 100 µM
[4] = ABTS radical cation scavenging assay; settings: for ABTS Assay %: at 100 µM
Description: ABTS (2,2′-azinobis-3-ethylbenzothiazoline-6-sulfonate) assay
The radical scavenging capacity of antioxidants for the ABTS radical cation was evaluated following this method: ABTS was prepared by adding 7 mM solution of ABTS at pH 7.4 (5 mM NaH2PO4, 5 mM Na2HPO4, and 154 mM NaCl) with 2.5 mM potassium persulfate. The mixture was stored at room temperature for 16 h in the dark before use and prepared […]. Once diluted with persulfate buffer, the absorbance of the mixture yielded an absorbance value of 0.70 ± 0.05 units at 734 nm. Then, 20 µL of each tested sample was mixed with fresh ABTS solution (180 µL), then the absorbance was measured 6 min after the initial mixing. Ascorbic acid was used as a standard. The capacity of free radical scavenging was expressed as a percentage of the inhibition values. The percentage of inhibition is calculated using the same expression employed in the DPPH assay.

[5] = set-up: method as in PMID 26504472; settings: tested at 147.78 µM ref 17; cited from earlier work
[6] = cited from earlier work
[7] = tested on: porcine pancreas α-amylase; set-up: method as in doi:10.15436/2377-0619.15.042; settings: at 1 mM, different protocols (chromogenic substrate p-nitrophenyl-α-D-maltopentaoside) ref 18; cited from earlier work
12-lipoxygenase = target: 12-lipoxygenase; set-up: method as in PMID 11447334; settings: previous report ref 22; cited from earlier work
Aβ1-40-induced dementia = tested on: Aβ1-40-induced dementia; set-up: method as in PMID 25274114; settings: rats ref 20; cited from earlier work
xanthine oxidase (XOD) = xanthine oxidase (XOD) (Homo sapiens, UniProt P47989); type: biochemical; settings: at 100 µM
xanthine oxidase (XOD), sequence (P47989 whole entry, species assumed): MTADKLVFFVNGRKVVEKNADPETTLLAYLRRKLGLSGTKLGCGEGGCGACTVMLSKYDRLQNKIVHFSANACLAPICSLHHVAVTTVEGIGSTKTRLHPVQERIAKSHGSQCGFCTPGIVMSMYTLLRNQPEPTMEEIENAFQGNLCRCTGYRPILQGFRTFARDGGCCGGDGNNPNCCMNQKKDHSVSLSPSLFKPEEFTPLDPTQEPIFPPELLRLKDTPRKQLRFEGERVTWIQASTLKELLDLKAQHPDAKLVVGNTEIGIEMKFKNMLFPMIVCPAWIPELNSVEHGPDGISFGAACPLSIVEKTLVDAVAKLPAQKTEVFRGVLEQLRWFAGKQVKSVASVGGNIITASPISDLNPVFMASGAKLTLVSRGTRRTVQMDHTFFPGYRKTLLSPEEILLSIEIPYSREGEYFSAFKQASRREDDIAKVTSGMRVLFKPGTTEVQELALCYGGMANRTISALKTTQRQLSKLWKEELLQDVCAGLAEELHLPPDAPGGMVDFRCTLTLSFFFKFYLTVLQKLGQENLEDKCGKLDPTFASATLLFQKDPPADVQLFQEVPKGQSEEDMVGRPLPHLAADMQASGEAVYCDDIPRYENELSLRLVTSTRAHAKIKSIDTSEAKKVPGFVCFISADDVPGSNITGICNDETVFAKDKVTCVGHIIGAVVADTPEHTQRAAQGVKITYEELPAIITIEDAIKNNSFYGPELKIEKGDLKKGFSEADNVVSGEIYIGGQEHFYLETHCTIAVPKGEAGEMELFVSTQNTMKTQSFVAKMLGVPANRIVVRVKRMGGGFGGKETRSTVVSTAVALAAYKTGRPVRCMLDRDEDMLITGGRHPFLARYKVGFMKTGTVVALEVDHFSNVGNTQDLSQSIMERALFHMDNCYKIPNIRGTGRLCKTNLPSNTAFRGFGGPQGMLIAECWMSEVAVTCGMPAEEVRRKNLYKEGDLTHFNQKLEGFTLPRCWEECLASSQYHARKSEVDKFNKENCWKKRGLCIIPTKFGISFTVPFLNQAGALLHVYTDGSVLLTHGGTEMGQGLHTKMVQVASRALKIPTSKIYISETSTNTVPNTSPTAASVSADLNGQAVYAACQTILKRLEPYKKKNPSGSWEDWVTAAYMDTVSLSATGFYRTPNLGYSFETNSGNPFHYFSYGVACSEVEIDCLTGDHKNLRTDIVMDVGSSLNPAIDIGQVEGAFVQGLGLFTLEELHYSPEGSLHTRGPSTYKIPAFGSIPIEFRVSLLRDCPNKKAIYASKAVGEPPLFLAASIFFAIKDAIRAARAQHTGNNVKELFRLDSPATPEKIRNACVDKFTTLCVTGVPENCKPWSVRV

acetylcholinesterase (AChE), sequence (P22303 32-614, species assumed): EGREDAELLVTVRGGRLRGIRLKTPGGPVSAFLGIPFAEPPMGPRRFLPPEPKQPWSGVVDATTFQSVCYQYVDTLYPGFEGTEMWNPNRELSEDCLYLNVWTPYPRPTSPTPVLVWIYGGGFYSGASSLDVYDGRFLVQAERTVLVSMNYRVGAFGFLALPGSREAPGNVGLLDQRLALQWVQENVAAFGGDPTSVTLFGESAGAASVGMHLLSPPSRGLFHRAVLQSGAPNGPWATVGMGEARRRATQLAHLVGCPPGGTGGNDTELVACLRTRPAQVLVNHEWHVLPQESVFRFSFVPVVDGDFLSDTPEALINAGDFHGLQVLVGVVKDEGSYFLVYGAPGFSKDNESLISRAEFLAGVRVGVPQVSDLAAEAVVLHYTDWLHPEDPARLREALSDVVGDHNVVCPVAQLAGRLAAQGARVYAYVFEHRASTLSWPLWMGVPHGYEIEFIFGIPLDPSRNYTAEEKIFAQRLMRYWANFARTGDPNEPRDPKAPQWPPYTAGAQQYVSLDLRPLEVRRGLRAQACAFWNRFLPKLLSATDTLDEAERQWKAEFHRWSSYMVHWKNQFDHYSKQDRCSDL

Row | Structure (SMILES) | Anti ACHE % [1] [%] | Anti 15-Lipoxygenase % (15-lipoxygenase) | IC50 ([2]; Anti SOD IC50) [µM] | Anti SOD % [3] | IC50 [4] [µM] | ABTS assay antioxidant activity [5] [%] | IC50 ([2]; read-out: Anti SOD IC50) [µM] | DPPH assay antioxidant activity ([6]; tested at 147.78 µM ref 17) [%] | porcine pancreas α-amylase inhibition [7] | ABTS Assay % [4] [%] | IC50 (12-lipoxygenase) [µM] | effect on Aβ1-40-induced dementia (Aβ1-40-induced dementia) | IC50 ([6]; previous study ref 16, read-out: DPPH assay IC50) [µM] | Anti XOD % (xanthine oxidase (XOD)) [%]
1 | O=c1cc(-c2ccccc2)oc2cc(O)cc(O)c12 [Molecule M1, 5,7-dihydroxyflavone] | 45.8 ± 1.3 | ineffective | > 100 | 41.5 ± 1.8% | > 50 | – | – | – | – | – | – | – | – | –
2 | COc1ccc(-c2oc3c(CC=C(C)C)c(O[C@@H]4O[C@H](CO)[C@@H](O)[C@H](O)[C@H]4O)cc(O)c3c(=O)c2O[C@@H]2O[C@@H](C)[C@H](O)[C@@H](O)[C@H]2O)cc1 [Molecule M2, Icariin] | 19.3 ± 0.3 | – | – | 61.7 ± 1.1% | 20.1 ± 0.1 | 14.6 ± 0.1 | > 50 | 3.8 ± 1.0 | – | – | – | – | – | –
3 | O=c1cc(-c2ccccc2)oc2ccc(O)cc12 [Molecule M3, 6-hydroxyflavone] | – | ineffective | – | 54.8 ± 3.2% | 24 ± 0.1 | – | > 50 | – | 4.5 ± 1.1% | – | – | – | – | –
4 | O=c1cc(-c2ccccc2)oc2cccc(O)c12 [Molecule M4, 5-hydroxyflavone] | – | ineffective | > 100 | 25.9 ± 2.5% | > 100 | – | – | – | ineffective | 16.0 ± 1.5 | – | – | – | –
5 | O=c1cc(-c2ccccc2)oc2cc(O)ccc12 [Molecule M5, 7-hydroxyflavone] | – | ineffective | – | 74.3 ± 3.1% and 74.3 ± 3.02% | > 100 | – | 36.5 ± 1.2 | – | 4.8 ± 3.6% | 5.9 ± 0.4 | – | – | – | –
6 | O=c1cc(-c2ccccc2)oc2cc(O)c(O)c(O)c12 [Molecule M7, 5,6,7-trihydroxyflavone] | 62.0 ± 1.9 | – | 36.5 ± 1.2 | 71.2 ± 2.3% | 6.3 ± 0.1 | – | 31.5 ± 0.5 | – | 13.2 ± 2.4% | – | 1 | perfected Aβ1-40-induced dementia in rats | 21.2 | –
7 | O=c1cc(-c2cc(O)cc(O)c2)oc2ccccc12 [Molecule M8, 3′,5′-dihydroxyflavone] | 49.3 ± 2.2 | – | – | 52.3 ± 0.9% | 7.3 ± 0.1 | – | > 50 | – | – | – | – | – | – | 75.3 ± 1.6
8 | O=c1cc(-c2cccc(O)c2)oc2ccc3ccccc3c12 [Molecule M9, 3′-hydroxy-b-naphthoflavone] | 47.9 ± 4.0 | – | – | 19.8 ± 2.9% | > 100 | – | > 100 | – | – | – | – | – | – | –
9 | O=c1cc(-c2cccc(O)c2)oc2cc(O)ccc12 [Molecule M13, 7,3′-dihydroxyflavone] | 63.9 ± 3.3 | – | – | 56.6 ± 1.7% | 24.5 ± 0.1 | – | > 50 | – | – | – | – | – | – | 64.2 ± 1.2
10 | COc1cc(-c2cc(=O)c3ccc4c(O)cccc4c3o2)cc(OC)c1OC [Molecule M18, 7-hydroxy-3′,4′,5′-trimethoxy-α-naphthoflavone] | 43.3 ± 1.8 | – | – | 32.7 ± 3.9% | > 50 | – | > 100 | – | – | – | – | – | – | 19.4 ± 1.0

From paper PMC10052652 (Molecules, 2023)
